# Laboratory results reported in patent publication US11931459B2, “Treatment of pain in pediatric patients by administration of sustained-release liposomal anesthetic compositions” (Pacira Pharmaceuticals, Inc., priority 2021, dated 2024).
# Counter-ions that a name gives are not always drawn.
# Experiments:
# [1] = Bupivacaine PK after local infiltration, noncompartmental analysis (PLAY phase 3 trial, NCT03682302); set-up: species or system human; conditions: in vivo; for AUC(0-inf): AUC0-∞
# Description: • Methods: A multicenter, open-label, phase 3, randomized trial (PLAY; NCT03682302) was conducted, with primary and secondary objectives evaluating the pharmacokinetics and safety, respectively, of multivesicular liposomal bupivacaine (EXPAREL®) in pediatric patients (age group 1: 12 to <17 years; age group 2: 6 to <12 years). The hypothesis was that the pharmacokinetics and safety profiles would support the safety of EXPAREL® (also referred to herein as “multivesicular liposomal bupivacaine” or “liposomal bupivacaine”) in pediatric patients. Age group 1 received 4 mg/kg liposomal bupivacaine or 2 mg/kg bupivacaine hydrochloride (HCl) at the end of spine surgery; all patients in age group 2 received liposomal bupivacaine (4 mg/kg) at the end of spine or cardiac surgery. […] In age group 2, 100% and 31% of patients undergoing spine (n=5) and cardiac (n=9) surgery experienced TEAEs, respectively. TEAEs were generally mild or moderate, with no discontinuations due to TEAEs or deaths. […] TEAEs were mild to moderate, supporting the safety of liposomal bupivacaine in pediatric patients undergoing spine or cardiac surgery. Study Design
# This study was performed in 2 parts. Part 1 evaluated PK and safety of liposomal bupivacaine. Part 2 followed part 1 and further evaluated the safety of liposomal bupivacaine. For both parts of the study, pediatric patients aged 12 to <17 years (age group 1) were analyzed separately from patients aged 6 to <12 years (age group 2), per FDA guidance for safety studies in pediatric patients.^25
# In age group 1, eligible pediatric patients aged 12 to <17 years undergoing spine surgery were randomized 1:1 to receive a single dose of either liposomal bupivacaine (4 mg/kg up to 266 mg) diluted with normal saline, or bupivacaine HCl (2 mg/kg up to 175 mg) via local infiltration at the end of surgery. Randomization was performed with a centralized randomization system using a unique subject identifier and unique random code identifier. In age group 2, all eligible pediatric patients aged 6 to <12 years of age undergoing either spine or cardiac surgery received liposomal bupivacaine (4 mg/kg up to 266 mg) via local infiltration at the end of surgery. Dosing for both age groups was weight based. Guidelines and training were shared with the participating surgeons to ensure reliability in infiltration techniques.
# Across age groups and surgical procedures, surgeons administered liposomal bupivacaine or bupivacaine HCl via local infiltration prior to wound closure, with liposomal bupivacaine and bupivacaine HCl administered in small increments into the deep and superficial layers along the entire length of the incision site to ensure uniform drug distribution. Use of intraoperative opioids, acetaminophen, or other nonsteroidal anti-inflammatory drugs as well as postsurgical pain medication in cases of insufficient analgesia during and after surgery was permitted in accordance with the standard of care at each site. Use of local anesthetics within 96 hours after administration of liposomal bupivacaine was prohibited.
# The primary objective was to analyze PK of liposomal bupivacaine, including area under the plasma concentration-time curve (AUC), maximum plasma concentration (Cmax), time to Cmax (Tmax), apparent elimination half-life (t1/2), apparent clearance (CL/F), and apparent volume of distribution (Vd/F). To assess plasma concentration of bupivacaine, 8 blood samples were collected up to 42-60 hours after spine surgery and up to 64-72 hours after cardiac surgery in each patient. For both procedures, the first 4 samples were collected ˜15, ˜30, ˜45, and 60-75 minutes after liposomal bupivacaine administration. The last 4 samples were collected in time windows rather than precise time points. For spine surgery, sample windows were 2-3,10-18, 24-36, and 42-60 hours after receiving liposomal bupivacaine or bupivacaine HCl. […]
# [2] = Bupivacaine PK, nonlinear mixed-effect modeling (population PK method); type: in vivo, human
# Description: The sample size was determined on the basis of the number of patients needed to characterize the PK profile of liposomal bupivacaine in pediatric patients per FDA requirements. Authorized staff or a designee obtained the randomization assignment once eligible patients were at the clinic site for surgery. Descriptive statistics (number, mean, standard deviation [SD], median, minimum, maximum) were calculated for continuous data; tabulations (number and percentage) were calculated for categorial data. PK analysis included pediatric patients who underwent surgery, received treatment, and provided at least 1 blood sample for quantifiable plasma concentration measurement. PK measures were assessed by noncompartmental analysis. A separate PK analysis was conducted using nonlinear mixed-effect modeling (population PK method) with the spine surgery cohorts combined. The safety analysis included pediatric patients who underwent surgery and received treatment. The incidence of patients reporting TEAEs was tabulated by the number and percentage of patients reporting the TEAE. All analyses and tabulations were performed using SAS, version 9.4; PK descriptive statistics were performed using Sigmastat and Microsoft Excel.
# Across age groups, trends in PK parameters between liposomal bupivacaine and bupivacaine HCl using the population PK model were consistent with those observed with noncompartmental analysis (Table 4). The PK of bupivacaine in both age groups and surgery cohorts were adequately described by a linear 2-compartment PK model with fast and slow absorption routes for liposomal bupivacaine. For each treatment (liposomal bupivacaine or bupivacaine HCl), the Cmax in 12-year-old patients was predicted to be similar to that in 17-year-old patients in pediatric patients undergoing spine surgery.
# [3] = Safety: treatment-emergent adverse events up to 30 days after surgery (PLAY trial); type: in vivo; conditions: age group 1 (12 to <17 years), spine surgery; liposomal bupivacaine 4 mg/kg or bupivacaine HCl 2 mg/kg
# Description: • Methods: A multicenter, open-label, phase 3, randomized trial (PLAY; NCT03682302) was conducted, with primary and secondary objectives evaluating the pharmacokinetics and safety, respectively, of multivesicular liposomal bupivacaine (EXPAREL®) in pediatric patients (age group 1: 12 to <17 years; age group 2: 6 to <12 years). The hypothesis was that the pharmacokinetics and safety profiles would support the safety of EXPAREL® (also referred to herein as “multivesicular liposomal bupivacaine” or “liposomal bupivacaine”) in pediatric patients. Age group 1 received 4 mg/kg liposomal bupivacaine or 2 mg/kg bupivacaine hydrochloride (HCl) at the end of spine surgery; all patients in age group 2 received liposomal bupivacaine (4 mg/kg) at the end of spine or cardiac surgery. […]
# The sample size was determined on the basis of the number of patients needed to characterize the PK profile of liposomal bupivacaine in pediatric patients per FDA requirements. […] Descriptive statistics (number, mean, standard deviation [SD], median, minimum, maximum) were calculated for continuous data; tabulations (number and percentage) were calculated for categorial data. PK analysis included pediatric patients who underwent surgery, received treatment, and provided at least 1 blood sample for quantifiable plasma concentration measurement. PK measures were assessed by noncompartmental analysis. […]
structure (smiles),measurement,setting,value
"CCCCN1CCCCC1C(=O)Nc1c(C)cccc1C (stereo not drawn) [bupivacaine HCl, bupivacaine hydrochloride]",Tmax,[1]; human,~1 h
same,Tmax,"[1]; human, 2 mg/kg",0.9 h
same,AUC(0-inf),"[1]; human, 2 mg/kg, Geometric mean",5060 ng·h/mL
same,AUC(0-inf),"[1]; human, 2 mg/kg, Mean",5710 ng·h/mL
same,Vd/F,"[1]; human, 2 mg/kg, Geometric mean",201 L
same,Vd/F,"[1]; human, 2 mg/kg, Mean",227 L
same,half-life,"[1]; human, 2 mg/kg, t1/2, Geometric mean",7.4 h
same,half-life,"[1]; human, 2 mg/kg, t1/2, Mean",8.4 h
same,Cmax,"[1]; human, age group 1 (12 to <17 years), spine surgery, local infiltration, liposomal bupivacaine 4 mg/kg (n = 15) or bupivacaine HCl 2 mg/kg (n = 15), read-out: Cmax, Geometric mean",488 ng/mL
same,"CL/F, Mean",[1],20.5 L/h
same,"CL/F, geometric mean",[1],18.9 L/h
same,AUC(0-inf),"[2]; human, plasma, population PK method, spine surgery: liposomal bupivacaine 4 mg/kg (6 to <17 y, n = 18) or bupivacaine HCl 2 mg/kg (12 to <17 y, n = 15), read-out: AUC0-∞, geometric mean",6400 ng·h/mL
same,Cmax,"[2]; human, plasma, population PK method, spine surgery: liposomal bupivacaine 4 mg/kg (6 to <17 y, n = 18) or bupivacaine HCl 2 mg/kg (12 to <17 y, n = 15), read-out: Early Cmax, geometric mean",444 ng/mL
same,Vd/F,"[2]; human, plasma, population PK method, spine surgery: liposomal bupivacaine 4 mg/kg (6 to <17 y, n = 18) or bupivacaine HCl 2 mg/kg (12 to <17 y, n = 15), read-out: Vss/F, geometric mean",153 L
same,half-life,"[2]; human, plasma, population PK method, spine surgery: liposomal bupivacaine 4 mg/kg (6 to <17 y, n = 18) or bupivacaine HCl 2 mg/kg (12 to <17 y, n = 15), read-out: t1/2, geometric mean (converted)",6.5 h
same,"CL/F, geometric mean","[2]; population PK method, spine surgery: liposomal bupivacaine 4 mg/kg (6 to <17 y, n = 18) or bupivacaine HCl 2 mg/kg (12 to <17 y, n = 15)",16.8 L/h
same,Median predicted early Tmax,"[2]; population PK model, spine surgery",0.667 h
same,discontinuations due to TEAEs or on-study deaths,[3],no discontinuations due to TEAEs or on-study deaths
